Data set [1] deals with T1, low-specificity threonine aldolase eTA (Escherichia coli, UniProt P75823).
T1 construct: gene ltaE
Nature of the data set: TMABADH-coupled spectrophotometric aldolase assay. It is filed as biochemical.

For data set [2], the target named is T2, SHMT2 (Homo sapiens, UniProt P34897).
T2 sequence (P34897 30-504): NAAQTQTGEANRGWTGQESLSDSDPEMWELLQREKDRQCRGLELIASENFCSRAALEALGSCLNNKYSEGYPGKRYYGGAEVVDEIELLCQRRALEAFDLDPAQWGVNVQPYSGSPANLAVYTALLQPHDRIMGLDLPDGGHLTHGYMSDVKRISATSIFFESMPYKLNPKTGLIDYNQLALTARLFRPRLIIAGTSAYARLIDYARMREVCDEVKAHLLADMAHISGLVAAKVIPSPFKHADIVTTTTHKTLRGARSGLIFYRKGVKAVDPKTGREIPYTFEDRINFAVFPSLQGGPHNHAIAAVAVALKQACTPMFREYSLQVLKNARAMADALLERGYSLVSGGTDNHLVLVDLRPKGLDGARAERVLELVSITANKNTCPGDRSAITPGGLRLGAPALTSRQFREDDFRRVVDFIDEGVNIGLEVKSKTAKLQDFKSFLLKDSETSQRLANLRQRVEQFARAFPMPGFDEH
As to the kind of experiment: TMABADH-coupled spectrophotometric aldolase assay (Km). It is filed as biochemical.

Data set [3] has as its target T3, SHMT1 (Homo sapiens, UniProt P34896).
T3 sequence (P34896 2-483): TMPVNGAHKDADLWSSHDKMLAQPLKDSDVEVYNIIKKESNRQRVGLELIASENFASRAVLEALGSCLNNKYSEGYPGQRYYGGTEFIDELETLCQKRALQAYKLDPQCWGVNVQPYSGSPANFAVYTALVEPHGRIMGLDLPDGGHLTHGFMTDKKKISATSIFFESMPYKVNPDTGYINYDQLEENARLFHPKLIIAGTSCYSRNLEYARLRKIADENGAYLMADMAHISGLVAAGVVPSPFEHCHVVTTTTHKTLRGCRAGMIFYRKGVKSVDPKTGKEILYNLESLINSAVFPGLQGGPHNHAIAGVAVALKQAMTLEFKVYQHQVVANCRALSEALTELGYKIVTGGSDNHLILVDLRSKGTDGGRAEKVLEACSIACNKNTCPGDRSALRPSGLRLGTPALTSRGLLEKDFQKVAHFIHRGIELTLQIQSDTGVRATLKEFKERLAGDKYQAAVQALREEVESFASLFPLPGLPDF
Nature of the data set: TMABADH-coupled spectrophotometric aldolase assay (Km); 1H NMR. It is filed as biochemical.

Data set [4] has as its target T4, KYAT1 (Homo sapiens, UniProt Q16773).
T4 sequence (Q16773 1-422): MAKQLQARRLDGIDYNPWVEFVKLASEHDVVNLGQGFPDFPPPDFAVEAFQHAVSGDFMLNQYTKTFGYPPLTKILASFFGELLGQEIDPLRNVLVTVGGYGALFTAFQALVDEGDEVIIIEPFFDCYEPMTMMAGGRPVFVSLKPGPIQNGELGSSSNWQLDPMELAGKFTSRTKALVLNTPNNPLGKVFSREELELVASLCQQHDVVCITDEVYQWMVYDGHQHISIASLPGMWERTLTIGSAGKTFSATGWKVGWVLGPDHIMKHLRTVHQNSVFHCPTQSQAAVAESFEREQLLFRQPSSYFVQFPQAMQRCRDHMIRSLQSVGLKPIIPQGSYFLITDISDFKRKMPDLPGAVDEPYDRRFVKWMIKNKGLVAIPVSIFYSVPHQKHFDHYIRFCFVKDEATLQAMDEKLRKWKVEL
Nature of the data set: spectrophotometric kynurenine aminotransferase assay at […] nm, Lineweaver-Burk. It is filed as biochemical.

In data set [5] the target is T2, SHMT2. Also noted: Threonine cleavage coupled to alcohol dehydrogenase, NADH depletion at 340 nm, Michaelis-Menten fit. The conditions noted are these: substrate. On the procedure:
(§1) The HTMLA activity was measured by coupling the aldol cleavage of HTML with the oxidation of TMABA by NAD^+ catalyzed by TMABADH. The rate of the reaction was calculated from the rate of appearance in absorbance at 340 nm, due to the formation of NADH, using a value of ε340 = 6220 cm^−1·M^−1. The reaction was carried out using 1 µM SHMT1 or 4 µM SHMT2 in 50 mM potassium phosphate, pH 7.5, containing 1 mM EDTA, 5 mM 2-mercaptoethanol, 0.5 mM NAD^+ and 8 µM TMABADH, at 37 °C. For Tha1 (1 µM) and eTA (0.1 µM) we kept the same conditions but a different temperature (30 °C) due to their low stability at 37 °C. The rate of L-allo-threonine and threonine cleavage was measured by coupling the reaction with reduction of the product acetaldehyde by NADH and alcohol dehydrogenase. With L-allo-threonine as substrate were reduced the amount of SHMT enzymes, 0.15 µM for SHMT1 and 1 µM for SHMT2.The rate of the reaction was calculated from the rate of disappearance in absorbance at 340 nm, due to NADH depletion.

Data set [6] addresses T3, SHMT1. Also noted: Threonine cleavage coupled to alcohol dehydrogenase, NADH depletion at 340 nm, Michaelis-Menten fit. The settings on record: substrate. The method, then: as §1
Data set [7] addresses T3, SHMT1.
For data set [8], the target named is T2, SHMT2.
The target in data set [9] is T5, threonine aldolase (Tha1) (Mus musculus, UniProt Q6XPS7).
T5 sequence (Q6XPS7 41-400): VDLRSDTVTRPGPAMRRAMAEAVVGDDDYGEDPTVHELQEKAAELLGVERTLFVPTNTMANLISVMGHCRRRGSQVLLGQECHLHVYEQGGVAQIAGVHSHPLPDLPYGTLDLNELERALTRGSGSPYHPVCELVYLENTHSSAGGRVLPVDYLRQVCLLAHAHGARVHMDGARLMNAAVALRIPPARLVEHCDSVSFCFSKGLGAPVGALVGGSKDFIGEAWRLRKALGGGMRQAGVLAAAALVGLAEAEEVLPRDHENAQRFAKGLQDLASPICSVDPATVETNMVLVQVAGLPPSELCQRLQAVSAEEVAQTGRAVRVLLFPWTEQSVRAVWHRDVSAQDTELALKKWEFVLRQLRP

In data set [10] the target is T5, threonine aldolase (Tha1). As to the kind of experiment: X-ray crystal structure (monoclinic C2 form). It is filed as binding. Also noted: without the first 40 amino acids (predicted mitochondrial signal).
Substrate in data set [11]: C[N+](C)(C)CCC[C@H](O)[C@H](N)C(=O)[O-]
As to the kind of experiment: TMABADH-coupled spectrophotometric aldolase assay (Km); 1H NMR. It is filed as biochemical, Mus musculus. The conditions noted are these: PLP.

Substrate in data set [12]: C[C@H](O)[C@H](N)C(=O)O
Nature of the data set: purified protein, by the assay type. Also noted: Threonine cleavage coupled to alcohol dehydrogenase, NADH depletion at 340 nm, Michaelis-Menten fit. The conditions noted are these: pH 7.5. The method, then:
as §1

Substrate in data set [13]: C[C@@H](O)[C@H](N)C(=O)O
As to the kind of experiment: purified protein, by the assay type. Also noted: Threonine cleavage coupled to alcohol dehydrogenase, NADH depletion at 340 nm, Michaelis-Menten fit. The conditions noted are these: pH 7.5. On the procedure: as §1

Data set [14] deals with the molecule itself. As to the kind of experiment: crystal structure; sitting drop at 18 °C, 0.2 M sodium nitrate, 0.1 M Bis-Tris propane pH 8.5, 20% w/v PEG 3350; space groups F222 (one molecule in the ASU) and C2 (two molecules in the ASU); tetramer formed by crystallographic symmetries.

Read-outs that look alike come from different tables or passages of the source.

T1 sequence (P75823 whole entry): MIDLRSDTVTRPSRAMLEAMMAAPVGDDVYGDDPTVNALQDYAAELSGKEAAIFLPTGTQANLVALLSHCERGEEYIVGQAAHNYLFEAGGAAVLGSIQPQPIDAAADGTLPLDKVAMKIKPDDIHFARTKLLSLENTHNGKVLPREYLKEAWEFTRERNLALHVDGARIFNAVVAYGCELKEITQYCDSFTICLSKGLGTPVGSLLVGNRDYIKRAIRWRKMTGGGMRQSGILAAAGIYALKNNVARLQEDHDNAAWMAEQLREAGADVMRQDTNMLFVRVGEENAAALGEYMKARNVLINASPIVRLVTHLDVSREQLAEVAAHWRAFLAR

On to `C[N+](C)(C)CCC[C@H](O)[C@H](N)C(=O)[O-]` [HTML], for which the “TMABADH-coupled spectrophotometric aldolase assay” value in data set [1] was “Characterization of its catalytic efficiency for L-allo-threonine and HTML, showed high activity with both substrates”. Besides, the Km (commonly the concentration of substrate that gives half-maximal velocity) in [2] amounted to 0.8 mM; in [3] it was 3.79 mM. For the same molecule, the Ki (as a rule, the equilibrium dissociation constant of an inhibitor or competing ligand from its target) in [4] worked out at 4 mM.

Regarding `C[C@H](O)[C@H](N)C(=O)O` [L-allo-threonine], the results for the Km in data set [5] and in [6] were 1.34 ± 0.115 mM and 0.226 ± 0.017 mM, respectively. In addition, the “alcohol dehydrogenase-coupled spectrophotometric aldolase assay (kcat/Km)” value in data set [7] is reported as ~ 10^4 s^-1 M^-1; in data set [8], ~ 10^2 s^-1 M^-1; in data set [9] it was ~ 10^2 s^-1 M^-1.

With `C[C@@H](O)[C@H](N)C(=O)O` [L-threonine], the values for the Michaelis constant (Km) in [5] and in [6] were 41.2 ± 3.43 mM and 36.5 ± 2.48 mM, respectively. Further, the “alcohol dehydrogenase-coupled spectrophotometric aldolase assay (kcat/Km)” value in data set [9] is recorded as ~ 10^1 s^-1 M^-1.

In the case of `Cc1ncc(COP(=O)(O)O)c(C=O)c1O` [PLP], the “X-ray crystal structure (monoclinic C2 form)” value in data set [10] was “In Tha1, the PLP cofactor, bound to Lys242, is stabilized in the active site by a network of hydrogen bonds”.

B1: threonine aldolase (Tha1) (Mus musculus) (protein)
chain: VDLRSDTVTRPGPAMRRAMAEAVVGDDDYGEDPTVHELQEKAAELLGVERTLFVPTNTMANLISVMGHCRRRGSQVLLGQECHLHVYEQGGVAQIAGVHSHPLPDLPYGTLDLNELERALTRGSGSPYHPVCELVYLENTHSSAGGRVLPVDYLRQVCLLAHAHGARVHMDGARLMNAAVALRIPPARLVEHCDSVSFCFSKGLGAPVGALVGGSKDFIGEAWRLRKALGGGMRQAGVLAAAALVGLAEAEEVLPRDHENAQRFAKGLQDLASPICSVDPATVETNMVLVQVAGLPPSELCQRLQAVSAEEVAQTGRAVRVLLFPWTEQSVRAVWHRDVSAQDTELALKKWEFVLRQLRP
notes: without the first 40 amino acids (predicted mitochondrial signal)
For B1, the Michaelis constant (Km) was 0.169 mM in data set [11], 8.236 ± 0.86 mM in data set [12] and 37.531 ± 10.873 mM in data set [13]. For the same molecule, the kcat/Km – broadly, the second-order rate constant that governs catalysis at low substrate concentration – in [12] worked out at 238 ± 26.2 M⁻¹ s⁻¹.

B2: mouse threonine aldolase (Tha1), truncated form without the first 40 amino acids (enzyme, UniProt Q6XPS7 41-400, looked up)
chain: VDLRSDTVTRPGPAMRRAMAEAVVGDDDYGEDPTVHELQEKAAELLGVERTLFVPTNTMANLISVMGHCRRRGSQVLLGQECHLHVYEQGGVAQIAGVHSHPLPDLPYGTLDLNELERALTRGSGSPYHPVCELVYLENTHSSAGGRVLPVDYLRQVCLLAHAHGARVHMDGARLMNAAVALRIPPARLVEHCDSVSFCFSKGLGAPVGALVGGSKDFIGEAWRLRKALGGGMRQAGVLAAAALVGLAEAEEVLPRDHENAQRFAKGLQDLASPICSVDPATVETNMVLVQVAGLPPSELCQRLQAVSAEEVAQTGRAVRVLLFPWTEQSVRAVWHRDVSAQDTELALKKWEFVLRQLRP
modifications: PLP cofactor bound to Lys242 (visible only in the monoclinic structure)
notes: Threonine aldolase Tha1, Mus musculus, CDS NM_027919.4 without the first 40 amino acids (predicted mitochondrial signal); The plasmid was bought from GenScript; also called Htmla; hydroxytrimethyllysine aldolase; source: E. coli BL21 with pGRO7 (GroEL/GroES co-expressed), purified (HisTrap, Superdex 200 size exclusion); not shown: His tag (from the vector pET-28b)
B2: the stoichiometry N (as a rule, the number of molecules, sites or subunits per partner or assembly) in data set [14] is 4.

The values above are taken from PMC11016064, “One substrate many enzymes virtual screening uncovers missing genes of carnitine biosynthesis in human and mouse” (Nature Communications, 2024).
